The results in this text go back to patent EP2272817A1, “PAI-1 INHIBITOR” (Institute of Medicinal Molecular Design, Inc., priority 2008, dated 2009).

Bounds are passed on as bounds.

In this assay the target is recombinant human PAI-1 (Homo sapiens, UniProt P05121). Description: Test Example 2: Human PAI-1 Inhibitory Activity (pH 7.4 HEPES buffer, 10 minutes incubation with two-chain tPA). It counts as biochemical. More on the design: purchased Molecular Innovations, Inc. Particulars: read-out: Inhibition Rate of PAI-1 Activity (%). The procedure: 0.1 M HEPES, 0.1 M NaCl. 1 mM EDTA. 0.1 % Polyethylene glycol 8,000 (Hampton Research Corporation),
2 mM Dimethyldecylphoshine oxide [Apo-10] (Fluka Corporation)

The term inhibition denotes the relative decrease from the control value, in per cent.

Sequence of recombinant human PAI-1 (P05121 24-402): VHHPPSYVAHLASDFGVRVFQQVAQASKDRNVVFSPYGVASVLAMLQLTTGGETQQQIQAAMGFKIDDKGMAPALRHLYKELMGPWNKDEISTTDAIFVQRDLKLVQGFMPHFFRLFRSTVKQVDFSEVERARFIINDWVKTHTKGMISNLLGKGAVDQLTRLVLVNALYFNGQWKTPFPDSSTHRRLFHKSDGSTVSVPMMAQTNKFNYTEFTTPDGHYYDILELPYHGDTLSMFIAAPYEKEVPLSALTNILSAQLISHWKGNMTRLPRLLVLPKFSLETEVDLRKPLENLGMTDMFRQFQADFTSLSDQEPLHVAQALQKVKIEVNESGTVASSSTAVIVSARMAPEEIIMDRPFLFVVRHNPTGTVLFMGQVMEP

On to `CN(CC(=O)O)c1ccc(-c2ccc(OC(F)(F)F)cc2)cc1Oc1ccc(C(C)(C)C)cc1` [Compound 534], for which the inhibition at 0.1 µM is 13%, the inhibition at 0.3 µM stood at 21%, the inhibition at 1 µM was 84% and the inhibition at 3 µM is over 99%.

Take `CC(C)(C)c1ccc(Oc2cc(Oc3ccc(OC(F)(F)F)cc3)ccc2OCC(=O)O)cc1` [Compound 538]: the inhibition at 0.1 µM was found to be 0%, the inhibition at 0.3 µM worked out at 12%, the inhibition at 1 µM was 87% and the inhibition at 3 µM is 98%.

Regarding `O=C(O)/C=C/c1cc(-c2ccc(OC(F)(F)F)cc2)ccc1OCCCCCOc1ccc(-c2ccc(OC(F)(F)F)cc2)cc1/C=C/C(=O)O` [Compound 543], the inhibition at 0.1 µM was found to be 0%, the inhibition at 0.3 µM was 1%, the inhibition at 1 µM turned out to be 73% and the inhibition at 3 µM worked out at 94%.

Regarding `O=C(O)CCc1cc(-c2ccc(OC(F)(F)F)cc2)ccc1OCCCCCOc1ccc(-c2ccc(OC(F)(F)F)cc2)cc1CCC(=O)O` [Compound 544], the inhibition at 0.1 µM turned out to be 0%, the inhibition at 0.3 µM was found to be 3%, the inhibition at 1 µM stood at 56% and the inhibition at 3 µM was found to be 92%.

On to `CC(C)(C)c1ccc(Sc2cc(-c3ccc(OC(F)(F)F)cc3)ccc2C(=O)O)cc1` [Compound 547], for which the inhibition at 0.1 µM worked out at 4%, the inhibition at 0.3 µM was found to be 17%, the inhibition at 1 µM was found to be 97% and the inhibition at 3 µM was over 99%.

Consider `CC(C)(C)c1ccc(Sc2cc(-c3ccc(OC(F)(F)F)cc3)ccc2C(=O)C(=O)O)cc1` [Compound 548], for which the inhibition at 0.1 µM was found to be 0%, the inhibition at 0.3 µM is 16%, the inhibition at 1 µM came to 95% and the inhibition at 3 µM is over 99%.

For the compound `CC(C)(C)c1ccc(C(=O)c2cc(-c3ccc(OC(F)(F)F)cc3)ccc2OCC(=O)O)cc1` [Compound 549], the inhibition at 0.1 µM is 23%, the inhibition at 0.3 µM worked out at 22%, the inhibition at 1 µM was determined as 84% and the inhibition at 3 µM was over 99%.

For the compound `CC(C)(C)c1ccc(Cc2cc(-c3ccc(OC(F)(F)F)cc3)ccc2OCC(=O)O)cc1` [Compound 550], the inhibition at 0.1 µM was 0%, the inhibition at 0.3 µM was determined as 2%, the inhibition at 1 µM was found to be 81% and the inhibition at 3 µM was over 99%.

For `CC(C)(C)c1ccc(CCc2cc(-c3ccc(OC(F)(F)F)cc3)ccc2OCC(=O)O)cc1` [Compound 551], the inhibition at 0.1 µM stood at 0%, the inhibition at 0.3 µM turned out to be 4%, the inhibition at 1 µM was found to be 92% and the inhibition at 3 µM was over 99%.

In the case of `O=C(O)CC(=O)N(Cc1ccccc1)c1ccc(-c2ccc(OC(F)(F)F)cc2)cc1F` [Compound 602], the inhibition at 1 µM was 9%, the inhibition at 3 µM was found to be 18%, the inhibition at 10 µM worked out at 78% and the inhibition at 25 µM is over 99%.

Regarding `CC(C)(C)c1ccc(CN(C(=O)CCCC(=O)O)c2ccc(-c3ccc(OC(F)(F)F)cc3)cc2)cc1` [Compound 604], the inhibition at 1 µM was determined as 0%, the inhibition at 3 µM was 20%, the inhibition at 10 µM amounted to 36% and the inhibition at 25 µM was found to be 46%.

For `CC(C)(C)c1ccc(CN(C(=O)CC(=O)O)c2ccc(-c3ccc(OC(F)(F)F)cc3)cc2)cc1` [Compound 608], the inhibition at 1 µM came out at 11%, the inhibition at 3 µM is 59%, the inhibition at 10 µM was 95% and the inhibition at 25 µM was 95%.

As to `CC(C)(C)c1ccc(N(CC(=O)O)c2ccccc2Oc2ccc(OC(F)(F)F)cc2)cc1` [Compound 610], the inhibition at 1 µM came out at 49%, the inhibition at 3 µM turned out to be 94%, the inhibition at 10 µM was 97% and the inhibition at 25 µM amounted to 86%.

`O=C(O)C(=O)N(Cc1ccc(-c2ccc(OC(F)(F)F)cc2)cc1)c1ccccc1` [Compound 611]: the inhibition at 1 µM was determined as 5%, the inhibition at 3 µM was 13%, the inhibition at 10 µM amounted to 45% and the inhibition at 25 µM was 81%.

Regarding `CC(C)(C)c1ccc(N(Cc2ccc(-c3ccccc3)cc2)C(=O)C(=O)O)cc1` [Compound 612], the inhibition at 1 µM came out at 7%, the inhibition at 3 µM came out at 25%, the inhibition at 10 µM turned out to be 84% and the inhibition at 25 µM is over 99%.

Take `CC(C)(C)c1ccc(-c2ccc(CN(C(=O)C(=O)O)c3ccc(OC(F)(F)F)cc3)cc2)cc1` [Compound 615]: the inhibition at 1 µM is 43%, the inhibition at 3 µM is 98%, the inhibition at 10 µM was over 99% and the inhibition at 25 µM was found to be 95%.

Consider `CC(C)(C)c1ccc(CN(C(=O)C(=O)O)c2ccc(C(=O)Nc3ccc(OC(F)(F)F)cc3)cc2)cc1` [Compound 617], for which the inhibition at 1 µM amounted to 6%, the inhibition at 3 µM is 64%, the inhibition at 10 µM is over 99% and the inhibition at 25 µM is over 99%.

Turning to `CN(C(=O)c1ccc(N(Cc2ccc(C(C)(C)C)cc2)C(=O)C(=O)O)cc1)c1ccc(OC(F)(F)F)cc1` [Compound 618], the inhibition at 1 µM was determined as 0%, the inhibition at 3 µM is 24%, the inhibition at 10 µM is 78% and the inhibition at 25 µM was over 99%.

On to `CC(C)(C)c1ccc(CN(C(=O)C(=O)O)c2ccc(N3CCN(c4ccccc4)CC3)cc2)cc1` [Compound 627], for which the inhibition at 1 µM was determined as 0%, the inhibition at 3 µM amounted to 14%, the inhibition at 10 µM was determined as 57% and the inhibition at 25 µM is over 99%.

On to `CC(C)(C)c1ccc(CN(C(=O)C(=O)O)c2ccc(N3CCN(c4ccc(OC(F)(F)F)cc4)CC3)cc2)cc1` [Compound 628], for which the inhibition at 1 µM came to 40%, the inhibition at 3 µM was over 99%, the inhibition at 10 µM is over 99% and the inhibition at 25 µM was determined as 90%.

Turning to `O=C(O)C(=O)N(Cc1ccc(-c2ccc(OC(F)(F)F)cc2)cc1)c1ccccc1-c1ccccc1` [Compound 632], the inhibition at 0.1 µM was determined as 0%, the inhibition at 0.3 µM was found to be 9%, the inhibition at 1 µM worked out at 31% and the inhibition at 3 µM amounted to 97%.

For `O=C(O)CCCCCCOc1ccc(-c2ccc(OC(F)(F)F)cc2)cc1N(CCCCc1ccccc1)C(=O)C(=O)O` [Compound 633], the inhibition at 0.1 µM is 11%, the inhibition at 0.3 µM came to 11%, the inhibition at 1 µM was 39% and the inhibition at 3 µM stood at 61%.

With `O=C(O)C(=O)N(CCCCc1ccccc1)c1cc(-c2ccc(OC(F)(F)F)cc2)ccc1OC1C2CC3CC(C2)CC1C3` (stereo not drawn) [Compound 634], the inhibition at 0.1 µM came to 17%, the inhibition at 0.3 µM is 37%, the inhibition at 1 µM is over 99% and the inhibition at 3 µM was 92%.

On to `CC(C)(C)c1ccc(Oc2cc(-c3ccc(OC(F)(F)F)cc3)ccc2N(CCCCc2ccccc2)C(=O)C(=O)O)cc1` [Compound 635], for which the inhibition at 0.1 µM stood at 14%, the inhibition at 0.3 µM worked out at 30%, the inhibition at 1 µM came out at 45% and the inhibition at 3 µM was 91%.

Turning to `CC(C)(C)c1ccc(Oc2ccc(-c3ccc(OC(F)(F)F)cc3)cc2N(CCCCc2ccccc2)C(=O)C(=O)O)cc1` [Compound 636], the inhibition at 0.1 µM was determined as 2%, the inhibition at 0.3 µM was 21%, the inhibition at 1 µM was 72% and the inhibition at 3 µM amounted to 81%.

Turning to `CCCCC1CCC(Oc2ccc(-c3ccc(OC(F)(F)F)cc3)cc2N(CCCCc2ccccc2)C(=O)C(=O)O)CC1` (stereo not drawn) [Compound 637], the inhibition at 0.1 µM was 0%, the inhibition at 0.3 µM was 5%, the inhibition at 1 µM was found to be 80% and the inhibition at 3 µM was 71%.

Take `O=C(O)C(=O)N(CCCCc1ccccc1)c1cc(-c2ccc(OC(F)(F)F)cc2)ccc1Oc1ccccc1` [Compound 638]: the inhibition at 0.1 µM amounted to 5%, the inhibition at 0.3 µM is 15%, the inhibition at 1 µM came out at 57% and the inhibition at 3 µM was over 99%.

Turning to `CC(C)[C@@H]1CC[C@@H](C)C[C@H]1Oc1ccc(-c2ccc(OC(F)(F)F)cc2)cc1N(CCCCc1ccccc1)C(=O)C(=O)O` [Compound 639], the inhibition at 0.1 µM is 6%, the inhibition at 0.3 µM is 12%, the inhibition at 1 µM is 91% and the inhibition at 3 µM was 87%.

For `CCCCCOc1ccc(-c2ccc(OC(F)(F)F)cc2)cc1N(CCCCc1ccccc1)CC(=O)O` [Compound 640], the inhibition at 0.1 µM came to 0%, the inhibition at 0.3 µM worked out at 19%, the inhibition at 1 µM is 92% and the inhibition at 3 µM amounted to 92%.

In the case of `CCCCC(C(=O)O)N(Cc1ccc(C(C)(C)C)cc1)c1cccc(-c2ccc(OC(F)(F)F)cc2)c1` (stereo not drawn) [Compound 641], the inhibition at 0.1 µM worked out at 9%, the inhibition at 0.3 µM came to 53%, the inhibition at 1 µM is 95% and the inhibition at 3 µM stood at 95%.

Take `CCCCC(C(=O)O)N(Cc1ccc(C(C)(C)C)cc1)c1ccc(-c2ccc(OC(F)(F)F)cc2)cc1` (stereo not drawn) [Compound 642]: the inhibition at 0.1 µM was found to be 16%, the inhibition at 0.3 µM was found to be 57%, the inhibition at 1 µM was determined as 94% and the inhibition at 3 µM was determined as 93%.

Take `CCCCCOc1ccc(-c2ccc(OC(F)(F)F)cc2)cc1CN(C(=O)C(=O)O)c1ccc(C(C)(C)C)cc1` [Compound 645]: the inhibition at 0.1 µM was 6%, the inhibition at 0.3 µM came out at 26%, the inhibition at 1 µM worked out at 95% and the inhibition at 3 µM is over 99%.

Take `O=C(O)CCCCCCCCOc1ccc(-c2ccc(OC(F)(F)F)cc2)cc1N(CCCCc1ccccc1)C(=O)C(=O)O` [Compound 646]: the inhibition at 0.1 µM was determined as 4%, the inhibition at 0.3 µM stood at 15%, the inhibition at 1 µM came out at 38% and the inhibition at 3 µM is 86%.
